Laboratory results as given in patent US20250290110A1, “MOGROSIDE COMPOSITIONS AND METHODS OF PRODUCING SAME” (Elo Life Systems, priority 2024, published 2025).
Values joined by “and” are separate entries in the source; they are usually repeats but may differ in a detail not shown here. Equal entries are not always repeated. “Also recorded” adds a separate entry of the source.

What was measured:
[1] = Temporal properties: onset of sweetness, time to maximum sweetness, aftertaste decay, trained sensory panel; assay type: in vivo, human
Method: Equi-sweet solutions at about 6 SEV were made in spring water (Ice Mountain, retail) of the following sweeteners: purified mogroside-V (Chem Faces, CFS202202), rebaudioside M (95%, Tate & Lyle, lot #1802-2302-1), rebaudioside A (95%, Tate & Lyle, 210617-01), and monk fruit (50% mogroside V, Tate & Lyle, 45GF220305). Another solution was prepared at about 6 SEV of a blend composed of 80% purified mogroside-V (Chem Faces, CFS202202), 15% 11-oxo-mogroside-V (Chem Faces, CFS202201), and 5% mogroside IIIA-1 (Chem Faces, CFS202201). The concentration of each solution can be found in Table 7.
A set of samples of each solution was evaluated by a panel of 7-9 trained judges. Panelists measured the time to onset of sweetness and time to reach maximum sweetness using a timer. Sweetness decay after expectorating was measured by rating sweetness intensity every 5 seconds on a 15-cm line scale graduated in evenly spaced 5-point increments and labeled low (0) to high (60). Samples were served at room temperature in 4-oz soufflé cups, labeled with random 3-digit codes. Water and saltine crackers were provided for rinsing between samples. Blind duplicates were evaluated in a second panel under the same conditions.
(§1) A solution of V90 was made at 410 ppm in spring water (Ice Mountain, retail) to be about 6 SEV. A second solution was made at about 6 SEV of purified mogroside-V (Chem Faces, CFS202202) at 325 ppm. A panel of 7-8 trained judges evaluated the temporal properties and taste attributes of each sample, including blind duplicates, in the same manner described previously in the Mogroside Blend 80/15/5 Taste Quality sections.
Two individual mogroside components of the blend, 11-oxo mogroside-V (Chem Faces, […]) and mogroside III-A1 (Chem Faces, 202301), were evaluated separately in spring water (Ice Mountain, retail) to determine the concentration needed to reach approximately 6 SEV. Solutions were then prepared at 3600 ppm of 11-oxo-mogroside-V and 600 ppm mogroside IIIA-1.
A panel of 6-7 trained judges evaluated the solutions by measuring the time to onset of sweetness and time to reach maximum sweetness using a timer. Decay of lingering aftertaste after expectorating was measured by rating sweetness intensity every 5 seconds on a 15-cm line scale graduated in evenly spaced 5-point increments and labeled low (0) to high (60). Samples were served at room temperature in 4-oz soufflé cups, labeled with random 3-digit codes, including blinded duplicates. Water and saltine crackers were provided for rinsing between samples.

[2] = Sweetness concentration response curve against sucrose reference standards, trained sensory panel; assay type: in vivo, human; settings: for Potency at 5 SEV / potency, times as sweet as sucrose at 5 SEV: spring water, room temperature; for potency, times as sweet as sucrose at 5 SEV: at 5 sucrose equivalent value (SEV)
Method: A blend composed of 80% purified mogroside-V (Chem Faces, CFS202202), 15% 11-oxo-mogroside-V (Chem Faces, CFS202201), and 5% mogroside IIIA-1 (Chem Faces, CFS202201) was diluted to six different concentrations (from 100 ppm to 650 ppm) in spring water (Ice Mountain, retail). For each solution, a set of five reference standards of sucrose dissolved in water in 0.5% (w/w) concentration increments was also prepared. Each concentration of the mogroside blend was evaluated by 6-8 trained judges. Samples were presented in 4-oz soufflé cups at room temperature, and the test sample was labeled with a random 3-digit code. Panelists tasted the blind-coded sample compared to the set of reference samples to determine the sweetness intensity score to the nearest 0.1 unit. Each concentration was evaluated in duplicate. The sweetness intensity scores were then plotted against the mogroside blend concentration to make a concentration response curve, and the best fitting Beidler equation was generated.
V90 is a 90% pure mogroside V containing about 6% 11-oxo mogroside-V. Five different concentrations of V90 (Huacheng Bio, LHGE-230401), ranging from 100 ppm to 500 ppm, were diluted in spring water (Ice Mountain, retail). Each dilution was presented to a panel of 7-8 judges experienced in evaluating sweeteners and was accompanied by a range of five sucrose solution reference standards bracketing the sweetness intensity of the test sample in 0.5% (w/w) increments. Panelists assigned a sweetness intensity score to each test sample, including blind duplicates, to the nearest 0.1 unit. All samples were served at room temperature in 4-oz soufflé cups with the test samples labeled with random 3-digit codes. Water and saltine crackers were provided for rinsing between samples.
Both individual mogrosides were also evaluated at five different concentrations in spring water (Ice Mountain, retail) for sweetness intensity. 11-oxo-mogroside was diluted to concentrations ranging from 200 ppm to 600 ppm and mogroside IIIA-1 was diluted to concentrations from 100 to 500 ppm. For each concentration, a set of five sucrose solution reference standards were prepared in 0.5% (w/w) increments to approximately bracket the sweetness intensity of the test sample. A panel of 6-8 trained judges evaluated each test sample in duplicate, accompanied by the corresponding reference standards, and assigned a sweetness intensity score to the sample to the nearest 0.1 unit. Samples were presented in 4-oz soufflé cups at room temperature, and the test sample was labeled with a random 3-digit code. The sweetness intensity scores were then plotted as a function of mogroside concentration to make a concentration response curve, and the best fitting Beidler equation was generated.
The error bars around each point represent 1 standard deviation. The data fit a Beidler equation with an r2 value of 0.961. The equation for this line is:
SEV=16.08*C/(521.2+C) • where SEV is the % sucrose equivalent sweetness as determined by sensory panel and C is the concentration of mogroside blend in ppm or mg/L.
P=SEV*10,000/C • where C is the concentration of the mogroside blend in ppm or mg/L and SEV is the % sucrose equivalent sweetness determined by sensory panel.

[3] = Descriptive analysis of sweetener attributes, sensory panel, 15-cm line scale; assay type: in vivo, human; settings: for Astringent, average intensity score / Bitter Linger, average intensity score / Bitterness, average intensity score / Body, average intensity score / Caramel, average intensity score / Fruity, average intensity score / Licorice, average intensity score / Sweet Linger, average intensity score / Sweetness, average intensity score: about 6 SEV in spring water, 0=low, 60=high; for taste quality in words: sensory panel
Text: The same samples described above were presented to a panel of 6-9 experienced judges for descriptive analysis. Solutions were blind-coded with random 3-digit codes and served at room temperature for evaluation. Panelists individually scored attributes of each sample, such as sweetness intensity, bitterness, astringency, and the presence of side flavors such as licorice or fruitiness. Scores were based on a 15-cm line scale marked with evenly spaced 5-point increments from low (0) to high (60). Samples were evaluated in duplicate. Water and saltine crackers were provided for rinsing between samples.
as §1
The panel also evaluated the intensity of several sensory attributes such as bitterness, astringency, caramel flavor, and fruitiness. The same 15-cm line scale was used for scoring, labeled from low (0) to high (60) with evenly spaced 5-point increments. The samples were served in 4-oz soufflé cups that were labeled with random 3-digit codes. Samples were evaluated at room temperature and included blind duplicates. Water and saltine crackers were provided for rinsing between samples. A 400-ppm solution of V90 (Huacheng Bio, LHGE-230401) was tasted as a reference at the beginning of the descriptive analysis session for calibration verification among panelists.

[4] = cited from earlier work
[5] = sucrose, not evaluated in this test
[6] = solutions at about 6 SEV, room temperature

SMILES | Potency at 5 SEV [2] | Astringent, average intensity score [3] | Bitter Linger, average intensity score [3] | Bitterness, average intensity score [3] | Body, average intensity score [3] | Caramel, average intensity score [3] | Fruity, average intensity score [3] | Licorice, average intensity score [3] | Sweet Linger, average intensity score [3] | Sweetness, average intensity score [3] | taste quality in words [3] | sweetness decay time after expectorating ([1]; solutions at about 6 SEV) | SEV at 1,000 ppm ([2]; from Beidler curve) | other results
C[C@H](CC[C@@H](O[C@@H]1O[C@H](CO[C@@H]2O[C@H](CO)[C@@H](O)[C@H](O)[C@H]2O)[C@@H](O)[C@H](O)[C@H]1O[C@@H]1O[C@H](CO)[C@@H](O)[C@H](O)[C@H]1O)C(C)(C)O)[C@H]1CC[C@@]2(C)[C@@H]3CC=C4[C@@H](CC[C@H](O)C4(C)C)[C@]3(C)[C@H](O)C[C@]12C [Mogroside IIIA-1, mogroside IIIA-1] | 71× | 5.1 | 37.3 | 37.3 | 12.1 | 1.9 | 0.7 | 2.2 | 5.7 | 34.5 | strongly bitter with a strong lingering bitter aftertaste |  |  | duration of bitter taste after expectorating ([1]; 600 ppm, about 6 SEV): more than 60 seconds; SEV at which the concentration response curve plateaus ([2]; in vivo): 4-5 SEV; concentration at which sweetness plateaus ([2]; in vivo): about 500 ppm; taste quality in words ([3]; listed as mogroside IIIA-1): strong bitter aftertaste that almost immediately overwhelmed any lingering sweet sensation
C=C1C[C@@]23CC[C@H]4[C@@](C)(CCC[C@@]4(C)C(=O)O[C@@H]4O[C@H](CO)[C@@H](O)[C@H](O)[C@H]4O)[C@@H]2CC[C@]1(O[C@@H]1O[C@H](CO)[C@@H](O)[C@H](O[C@@H]2O[C@H](CO)[C@@H](O)[C@H](O)[C@H]2O)[C@H]1O[C@@H]1O[C@H](CO)[C@@H](O)[C@H](O)[C@H]1O)C3 [Rebaudioside A, rebaudioside A] |  |  |  |  |  |  |  |  |  |  | a bitter taste continued to linger; also recorded: notable bitterness compared to the other sweeteners | about 40 seconds |  | 
C[C@H](CC[C@@H](O[C@@H]1O[C@H](CO[C@@H]2O[C@H](CO)[C@@H](O)[C@H](O)[C@H]2O)[C@@H](O)[C@H](O)[C@H]1O[C@@H]1O[C@H](CO)[C@@H](O)[C@H](O)[C@H]1O)C(C)(C)O)[C@H]1CC[C@@]2(C)[C@@H]3CC=C4[C@@H](CC[C@H](O[C@@H]5O[C@H](CO[C@@H]6O[C@H](CO)[C@@H](O)[C@H](O)[C@H]6O)[C@@H](O)[C@H](O)[C@H]5O)C4(C)C)[C@]3(C)C(=O)C[C@]12C [11-oxo-mogroside V] | 28× | 4.3 | 0.7 | 7.7 | 12.7 | 4.8 | 2.1 | 2.1 | 17.1 | 37.1 | slight bitterness | about 45 seconds | 4.2 SEV | potency, times as sweet as sucrose at 5 SEV ([2]; listed as 11-oxo mogroside-V): approximately 28 times as sweet as sucrose; potency, times as sweet as sucrose at 5 SEV ([2]; listed as 11-oxo-mogroside-V): 28 times as sweet as sucrose
C=C1C[C@@]23CC[C@H]4[C@@](C)(CCC[C@@]4(C)C(=O)O[C@@H]4O[C@H](CO)[C@@H](O)[C@H](O[C@@H]5O[C@H](CO)[C@@H](O)[C@H](O)[C@H]5O)[C@H]4O[C@@H]4O[C@H](CO)[C@@H](O)[C@H](O)[C@H]4O)[C@@H]2CC[C@]1(O[C@@H]1O[C@H](CO)[C@@H](O)[C@H](O[C@@H]2O[C@H](CO)[C@@H](O)[C@H](O)[C@H]2O)[C@H]1O[C@@H]1O[C@H](CO)[C@@H](O)[C@H](O)[C@H]1O)C3 [Rebaudioside M, rebaudioside M] |  |  |  |  |  |  |  |  |  |  |  | 50 s |  | 
OC[C@H]1O[C@@](CO)(O[C@H]2O[C@H](CO)[C@@H](O)[C@H](O)[C@H]2O)[C@@H](O)[C@@H]1O [sucrose] |  |  |  |  |  |  |  |  |  |  |  |  |  | sweetness decay time (typical value) ([4]; 6 SEV solution of sucrose): 20 to 25 s; onset of sweetness (general value, not evaluated in this test) [4, 5]: about 0.5 seconds; time to reach maximum sweetness (general value, not evaluated in this test) [4, 5]: around 1 second
C[C@H](CC[C@@H](O[C@@H]1O[C@H](CO[C@@H]2O[C@H](CO)[C@@H](O)[C@H](O)[C@H]2O)[C@@H](O)[C@H](O)[C@H]1O[C@@H]1O[C@H](CO)[C@@H](O)[C@H](O)[C@H]1O)C(C)(C)O)[C@H]1CC[C@@]2(C)[C@@H]3CC=C4[C@@H](CC[C@H](O[C@@H]5O[C@H](CO[C@@H]6O[C@H](CO)[C@@H](O)[C@H](O)[C@H]6O)[C@@H](O)[C@H](O)[C@H]5O)C4(C)C)[C@]3(C)[C@H](O)C[C@]12C [Mogroside V, mogroside V] | 185× | 2.9 and 2.5 | 0.0 | 1.1 and 1.4 | 11.9 and 12.1 | 4.2 and 4.5 | 2.6 and 3.0 | 0.8 and 0.7 | 16.2 and 14.3 | 35.9 and 36.3 |  |  | 11.5 SEV | onset of sweetness [1, 6]: 1.1 s; time to reach maximum sweetness [1, 6]: 2.5 s; Beidler equation denominator constant (SEV=a*C/(b+C), b) ([2]; C = concentration): 920.8 ppm or mg/L; Beidler equation numerator constant (SEV=a*C/(b+C), a) ([2]; SEV = % sucrose equivalent sweetness): 22.03; potency, times as sweet as sucrose at 5 SEV ([2]; listed as mogroside V): 185 times as sweet as sucrose; potency, times as sweet as sucrose at 5 SEV ([2]; listed as mogroside-V): about 185 times as sweet as sucrose; potency, times as sweet as sucrose at 5 SEV ([2]; listed as purified Mog-V): ~200 times as sweet as sucrose; Potency at 10 SEV ([2]; at 10 SEV, from Beidler curve): 131×
